{"source": "paper PMC12040169", "about": "(PLOS Biology, 2025)"}
{"assay": "in vitro", "conditions": "human, hela cells, % viability", "units": {"viability at 28.5 h, 10 µM": "%"}}
{"smiles": "O=C(O)c1ccc(S(=O)(=O)c2ccc3c(c2)C(=O)N(c2ccccc2-c2ccccc2)C3=O)cc1", "note": "[CBK262760]", "viability at 28.5 h, 10 µM": 101}
{"smiles": "O=C(CN1C(=O)c2ccccc2C1=O)Nc1cccc2ncccc12", "note": "[CBK262761]", "viability at 28.5 h, 10 µM": 84}
{"smiles": "Cc1nnc(SCC(=O)N/N=C/c2ccncc2)n1-c1ccccc1", "note": "[CBK262762]", "viability at 28.5 h, 10 µM": 85.4}
{"smiles": "CN1CCN(N/C=C2/C(=O)N(c3ccc([N+](=O)[O-])cc3)N=C2c2ccccc2)CC1", "note": "[CBK262763]", "viability at 28.5 h, 10 µM": 89.6}
{"smiles": "COc1ccccc1N1C(=O)CC(SC(=N)N/N=C(\\C)c2ccc(O)cc2)C1=O", "note": "(centres unmarked) [CBK262766]", "viability at 28.5 h, 10 µM": 100}
{"smiles": "Cc1nnc(SCC(=O)N/N=C/c2ccc(-c3ccc(Br)cc3)o2)n1-c1ccccc1", "note": "[CBK262769]", "viability at 28.5 h, 10 µM": 104}
{"smiles": "O=C(N/N=C/c1ccccc1O)c1ccn(Cc2ccc(Cl)cc2)n1", "note": "[CBK262770]", "viability at 28.5 h, 10 µM": 91.3}
{"smiles": "O=C1NCC(c2ccccc2)C1C(=O)N/N=C\\c1cc(O)ccc1[N+](=O)[O-]", "note": "(centres unmarked) [CBK262772]", "viability at 28.5 h, 10 µM": 91.8}
{"smiles": "O=C1c2ccc(Oc3ccc4c(c3)C(=O)N(c3cccnc3)C4=O)cc2C(=O)N1c1cccnc1", "note": "[CBK262773]", "viability at 28.5 h, 10 µM": 88.6}
{"smiles": "CN1CCN(c2nc(-c3ccccc3)cc(-c3ccc(Br)cc3)n2)CC1", "note": "[CBK262774]", "viability at 28.5 h, 10 µM": 93.7}
{"smiles": "O=C(CSc1nnc(-c2ccncc2)n1-c1ccccc1)N/N=C/c1c[nH]c2ccccc12", "note": "[CBK262776]", "viability at 28.5 h, 10 µM": 90.5}
{"smiles": "O=C(Cc1ccccc1)N/N=C/c1cccc2cccnc12", "note": "[CBK262778]", "viability at 28.5 h, 10 µM": 85.7}
{"smiles": "Cc1cc2nc(-c3cc(NC(=O)c4ccc(C)c([N+](=O)[O-])c4)ccc3O)oc2cc1C", "note": "[CBK262779]", "viability at 28.5 h, 10 µM": 89.1}
{"smiles": "O=C(COc1ccccc1Cl)N/N=C/c1ccc(-c2ccccc2[N+](=O)[O-])o1", "note": "[CBK262782]", "viability at 28.5 h, 10 µM": 112}
{"smiles": "O=C(c1cccc([N+](=O)[O-])c1)c1ccc2c(c1)C(=O)N(Cc1cccnc1)C2=O", "note": "[CBK262784]", "viability at 28.5 h, 10 µM": 80.1}
{"smiles": "O=C(O)/C=C/C(=O)N(Cc1ccc2c(c1)OCO2)C1CC(=O)N(c2ccccc2)C1=O", "note": "(centres unmarked) [CBK262786]", "viability at 28.5 h, 10 µM": 91.4}
{"smiles": "COc1cc(NC(=O)c2ccc3c(c2)C(=O)N(c2ccccc2OC)C3=O)c(C(=O)O)cc1OC", "note": "[CBK262787]", "viability at 28.5 h, 10 µM": 95.1}
{"smiles": "O=C(O)c1ccc(/C=N\\NC(=O)C2COc3cc4ccccc4cc3O2)cc1", "note": "(centres unmarked) [CBK262792]", "viability at 28.5 h, 10 µM": 90.4}
{"smiles": "O=C(CN1C(=O)c2ccccc2C1=O)NCc1ccc(C(=O)O)cc1", "note": "[CBK262795]", "viability at 28.5 h, 10 µM": 90.2}
{"smiles": "COc1cc(NS(=O)(=O)c2ccc(Nc3nc(-c4sc(N)nc4C)cs3)cc2)nc(OC)n1", "note": "[CBK262796]", "viability at 28.5 h, 10 µM": 91.2}
{"smiles": "Cc1ccc(S(=O)(=O)NC(C)(C)CN2CCN(C(c3ccccc3)c3ccccc3)CC2)cc1", "note": "[CBK262799]", "viability at 28.5 h, 10 µM": 90}
{"smiles": "O=C(O)c1cc(NC(=O)c2cccc(F)c2)cc(NC(=O)c2cccc(F)c2)c1", "note": "[CBK262800]", "viability at 28.5 h, 10 µM": 90.6}
{"smiles": "O=C(O)CCCN1C(=O)/C(=C/c2ccccc2[N+](=O)[O-])SC1=S", "note": "[CBK262801]", "viability at 28.5 h, 10 µM": 90.4}
{"smiles": "CC(O)CNCCNc1c(Cl)cccc1[N+](=O)[O-]", "note": "(centres unmarked) [CBK262802C]", "viability at 28.5 h, 10 µM": 98.8}
{"smiles": "O=[N+]([O-])c1cc(S(=O)(=O)N2CCCCCC2)ccc1NCc1ccccc1", "note": "[CBK262804]", "viability at 28.5 h, 10 µM": 88.3}
{"smiles": "CC(CO)(CO)Nc1ccc(C(F)(F)F)cc1[N+](=O)[O-]", "note": "[CBK262806]", "viability at 28.5 h, 10 µM": 61.9}
{"smiles": "Cc1ccc(-c2ccc(/C=N\\NC(=O)C3C(=O)NCC3c3ccccc3)o2)cc1Cl", "note": "(centres unmarked) [CBK262808]", "viability at 28.5 h, 10 µM": 98.7}
{"smiles": "O=C(Oc1ccc(/C=N/NC(=O)C2COc3ccccc3O2)cc1)c1cccnc1", "note": "(centres unmarked) [CBK262811]", "viability at 28.5 h, 10 µM": 96.5}
{"smiles": "COc1ccc(/C=N/NC(=O)CSc2nnc(C)n2-c2ccccc2)cc1", "note": "[CBK262812]", "viability at 28.5 h, 10 µM": 114}
{"smiles": "CC(Oc1ccccc1)C(=O)Nc1cccc(-c2nnc(-c3ccccc3)o2)c1", "note": "(centres unmarked) [CBK262822]", "viability at 28.5 h, 10 µM": 91.2}
{"smiles": "O=C(O)c1ccc(S(=O)(=O)c2ccc3c(c2)C(=O)N(c2cc(C(=O)O)cc(C(=O)O)c2)C3=O)cc1", "note": "[CBK262824]", "viability at 28.5 h, 10 µM": 92.8}
{"smiles": "C/C(=N\\NC(=O)c1nc(-c2ccccc2)cc(-c2ccccc2)n1)c1cccnc1", "note": "[CBK262827]", "viability at 28.5 h, 10 µM": 90.2}
